For orientation: Ki means a dissociation constant, usually derived from enzyme kinetics or from competition with a known ligand. A high value points to weaker binding.

Test [1] deals with Kappa-type opioid receptor (Homo sapiens, UniProt P41145).
Test [2] addresses Mu-type opioid receptor (Rattus norvegicus, UniProt P33535).

Chain of Kappa-type opioid receptor (P41145 whole entry): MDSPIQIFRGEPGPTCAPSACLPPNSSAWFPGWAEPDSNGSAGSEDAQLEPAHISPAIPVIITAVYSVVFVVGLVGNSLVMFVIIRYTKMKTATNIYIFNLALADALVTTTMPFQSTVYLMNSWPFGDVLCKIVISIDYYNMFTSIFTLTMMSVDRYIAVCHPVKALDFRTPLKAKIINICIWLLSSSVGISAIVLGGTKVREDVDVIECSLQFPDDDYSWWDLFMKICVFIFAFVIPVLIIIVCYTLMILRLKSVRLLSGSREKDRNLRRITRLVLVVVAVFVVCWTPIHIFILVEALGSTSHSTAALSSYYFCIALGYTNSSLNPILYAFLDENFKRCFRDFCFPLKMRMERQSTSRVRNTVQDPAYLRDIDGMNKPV
Chain of Mu-type opioid receptor (P33535 whole entry): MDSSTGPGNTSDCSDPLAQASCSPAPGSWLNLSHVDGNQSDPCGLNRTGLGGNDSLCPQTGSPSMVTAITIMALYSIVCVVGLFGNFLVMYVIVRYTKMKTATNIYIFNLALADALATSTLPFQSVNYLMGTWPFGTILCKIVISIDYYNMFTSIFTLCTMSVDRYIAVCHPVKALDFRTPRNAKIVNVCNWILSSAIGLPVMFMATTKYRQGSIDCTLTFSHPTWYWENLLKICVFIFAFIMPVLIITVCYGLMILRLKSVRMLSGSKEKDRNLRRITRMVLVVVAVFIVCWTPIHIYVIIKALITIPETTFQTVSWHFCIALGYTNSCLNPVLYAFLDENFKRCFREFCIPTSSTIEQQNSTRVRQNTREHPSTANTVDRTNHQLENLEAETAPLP

In the case of `COC(=O)C12CN(C)CC(C(=O)OC)(C1=O)C(c1cccc(F)c1)N(C)C2c1cccc(F)c1` (configuration not stated), the affinity in test [1] corresponds to a Ki of 248 nM. As to `CN(C(=O)C=Cc1ccoc1)C1CCC2(O)C3Cc4ccc(O)c5c4C2(CCN3CC2CC2)C1O5` (configuration not stated) [CAS_213055], the affinity in test [2] corresponds to a Ki of 5.2 nM.

Source of the values: BindingDB's records for doi:10.1124/jpet.104.073668 (Temple University, 2005).
